Measured values: patent EP0391169A2, “Enantiomeric pure 7-(3-amino-1-pyrrolidinyl)-chinolon-and-naphthyridon carboxylic acids” (BAYER AG, priority 1989, dated 1990)
≈ marks a conversion by molar mass, not a printed value. Counter-ions that a name gives are not always drawn.

Key:
Assay in all cases: MIC agar dilution test (Denley Multipoint Inoculator; Iso-Sensitest agar)
Assay type in all cases: cell-based
[1] = test system: Pseudomonas aerog. Walter; conditions: 37° C, ca. 20 h, read-out: MHK-Werte
Text: (§1) Die minimalen Hemmkonzentrationen (MHK) wurden per Reihenverdünnungsverfahren auf Iso-Sensitest Agar (Oxoid) bestimmt. Für jede Prüfsubstanz wurde eine Reihe von Agarplatten hergestellt, die bei jeweils doppelter Verdünnung abfallende Konzentrationen des Wirkstoffes enthielten. Die Agarplatten wurden mit einem Multipoint-Inokulator (Denley) beimpft. Zum Beimpfen wurden Übernachtkulturen der Erreger verwandt, die zuvor so verdünnt wurden, daß jeder Impfpunkt ca. 10^4 koloniebildende Partikel enthielt. Die beimpften Agarplatten wurden bei 37° C bebrütet, und das Keimwachstum wurde nach ca. 20 Stunden abgelesen. Der MHK-Wert (µg/ml) gibt die niedrigste Wirkstoffkonzentration an, bei der mit bloßem Auge kein Keimwachstum zu erkennen war.
(§2) In der nachfolgenden Tabelle sind die MHK-Werte einiger der erfindungsgemäßen Verbindungen im Vergleich zum entsprechenden Racemat aufgeführt: […]

Proteus mir. 8223 = conditions: 37° C, ca. 20 h, read-out: MHK-Werte
Text: as §1, §2

E. coli 455/7 = conditions: Escherichia coli, 37° C, ca. 20 h, read-out: MHK-Werte
Text: as §1, §2

Proteus mir. 8175 = conditions: 37° C, ca. 20 h, read-out: MHK-Werte
Text: as §1, §2

Enteroc. faecalis 27101 = conditions: 37° C, ca. 20 h, read-out: MHK-Werte
Text: as §1, §2

[2] = test system: Providencia stuartei 12052; conditions: 37° C, ca. 20 h, read-out: MHK-Werte
Text: as §1, §2

[3] = test system: Pseudomonas aerog. Ellsworth; conditions: 37° C, ca. 20 h, read-out: MHK-Werte
Text: as §1, §2

Enteroc. faecalis 9790 = conditions: 37° C, ca. 20 h, read-out: MHK-Werte
Text: as §1, §2

[4] = test system: Serrratia marcescene 16040; conditions: 37° C, ca. 20 h, read-out: MHK-Werte
Text: as §1, §2

Proteus vulg. 1017 = conditions: 37° C, ca. 20 h, read-out: MHK-Werte
Text: as §1, §2

Providencia stuartei = Providencia stuartei (strain number not given), 37° C, ca. 20 h, read-out: MHK-Werte
Text: as §1, §2

E. coli Neumann = conditions: Escherichia coli, 37° C, ca. 20 h, read-out: MHK-Werte
Text: as §1, §2

E. coli A261 = conditions: Escherichia coli, 37° C, ca. 20 h, read-out: MHK-Werte
Text: as §1, §2

Morg. morg. 932 = conditions: 37° C, ca. 20 h, read-out: MHK-Werte
Text: as §1, §2

Klebsiella pneum. 63 = conditions: 37° C, ca. 20 h, read-out: MHK-Werte
Text: as §1, §2

Klebsiella pneum. 8085 = conditions: 37° C, ca. 20 h, read-out: MHK-Werte
Text: as §1, §2

Morg. morg. 11006 = conditions: 37° C, ca. 20 h, read-out: MHK-Werte
Text: as §1, §2

Staph. aurens 133 = conditions: 37° C, ca. 20 h, read-out: MHK-Werte
Text: as §1, §2

Staph. aurens 1756 = conditions: 37° C, ca. 20 h, read-out: MHK-Werte
Text: as §1, §2

Staph. aurens FK 422 = conditions: 37° C, ca. 20 h, read-out: MHK-Werte
Text: as §1, §2

Structure (SMILES)	MIC [1] [µg/mL]	MIC (Proteus mir. 8223) [µg/mL]	MIC (E. coli 455/7) [µg/mL]	MIC (Proteus mir. 8175) [µg/mL]	MIC (Enteroc. faecalis 27101) [µg/mL]	MIC [2] [µg/mL]	MIC [3] [µg/mL]	MIC (Enteroc. faecalis 9790) [µg/mL]	MIC [4] [µg/mL]	MIC (Proteus vulg. 1017) [µg/mL]	MIC (Providencia stuartei) [µg/mL]	MIC (E. coli Neumann) [µg/mL]	MIC (E. coli A261) [µg/mL]	MIC (Morg. morg. 932) [µg/mL]	MIC (Klebsiella pneum. 63) [µg/mL]	MIC (Klebsiella pneum. 8085) [µg/mL]	MIC (Morg. morg. 11006) [µg/mL]	MIC (Staph. aurens 133) [µg/mL]	MIC (Staph. aurens 1756) [µg/mL]	MIC (Staph. aurens FK 422) [µg/mL]
Cc1c(F)c(N2CC[C@@H](N)C2)cc2c1c(=O)c(C(=O)O)cn2C1CC1 [Beispiel 6, 7-[R-(3-Amino)-1-pyrrolidinyl]-1-cyclopropyl-6-fluor-1,4-dihydro-5-methyl-4-oxo-3-chinolincarbonsäure-Hydrochlorid]	2	8	8	0.5	1	8	1	2	4											
N[C@@H]1CCN(c2c(F)cc3c(=O)c(C(=O)O)cn(C4CC4)c3c2F)C1 [Beispiel 4, 7-[R-(3-Amino)-1-pyrrolidinyl]-1-cyclopropyl-6,8-difluor-1,4-dihydro-4-oxo-3-chinolincarbonsäure-Hydrochlorid]	0.25	0.5	0.5			0.5			1	0.0078	0.0015	0.0078	0.0078	0.0078						
NC1CCN(c2c(F)cc3c(=O)c(C(=O)O)cn(C4CC4)c3c2F)C1 (racemic) [**), 7-(3-Amino-1-pyrrolidinyl)-6,8-difluor-1-cyclopropyl-1,4-dihydro-4-oxo-chinolincarbonsäure, reference compound]		0.5 (≈ 1.43 µM)	0.25 (≈ 0.716 µM)			0.25 (≈ 0.716 µM)			0.5 (≈ 1.43 µM)	0.0039 (≈ 0.0112 µM)	0.0078 (≈ 0.0223 µM)	0.0039 (≈ 0.0112 µM)	0.0039 (≈ 0.0112 µM)	0.0039 (≈ 0.0112 µM)	0.0078 (≈ 0.0223 µM)	0.0078 (≈ 0.0223 µM)	0.0078 (≈ 0.0223 µM)			
N[C@@H]1CCN(c2c(F)cc3c(=O)c(C(=O)O)cn(C4CC4)c3c2Cl)C1 [Beispiel 2, 7-[R-(3-Amino)-1-pyrrolidinyl]-8-chlor-1-cyclopropyl-6-fluor-1,4-dihydro-4-oxo-3-chinolincarbonsäure -Hydrochlorid]	0.06	0.25	0.25	0.15	0.03	0.25	0.06	0.06	0.25	0.0019	0.0078	0.0019	0.0039	0.0039	0.0078	0.0078	0.0078			
NC1CCN(c2c(F)cc3c(=O)c(C(=O)O)cn(C4CC4)c3c2Cl)C1 (racemic) [*), 7-(3-Amino-1-pyrrolidinyl)-8-chlor-1-cyclopropyl-6-fluor-1,4-dihydro-4-oxo-3-chinolincarbonsäure, reference compound]	0.06 (≈ 0.164 µM)	0.25 (≈ 0.683 µM)		0.0078 (≈ 0.0213 µM)	0.03 (≈ 0.082 µM)		0.03 (≈ 0.082 µM)	0.03 (≈ 0.082 µM)	0.25 (≈ 0.683 µM)	0.0019 (≈ 0.00519 µM)	0.0039 (≈ 0.0107 µM)	0.0019 (≈ 0.00519 µM)	0.0019 (≈ 0.00519 µM)	0.0019 (≈ 0.00519 µM)	0.0039 (≈ 0.0107 µM)	0.0039 (≈ 0.0107 µM)	0.0078 (≈ 0.0213 µM)			
Cc1c(F)c(N2CC[C@H](N)C2)cc2c1c(=O)c(C(=O)O)cn2C1CC1 [Beispiel 5, 7-[S-(3-Amino)-1-pyrrolidinyl]-1-cyclopropyl-6-fluor-1,4-dihydro-5-methyl-4-oxo-3-chinolincarbonsäure-Hydrochlorid]	0.5	4	2			4	0.25	0.25	2											
N[C@H]1CCN(c2c(F)cc3c(=O)c(C(=O)O)cn(C4CC4)c3c2F)C1 [Beispiel 3, 7-[S-(3-Amino)-1-pyrrolidinyl]-1-cyclopropyl-6,8-difluor-1,4-dihydro-4-oxo-3-chinolincarbonsäure-Hydrochlorid]		0.25	0.25			0.25	0.62		0.25	0.0039	0.0078	0.0039	0.0039	0.0039	0.0078	0.0078	0.0078			
N[C@H]1CCN(c2c(F)cc3c(=O)c(C(=O)O)cn(C4CC4)c3c2Cl)C1 [Beispiel 1, 7-[S-(3-Amino)-1-pyrrolidinyl]-8-chlor-1-cyclopropyl-6-fluor-1,4-dihydro-4-oxo-3-chinolincarbonsäure-Hydrochlorid]	0.03	0.25		0.0078	0.03		0.03	0.03		≤ 0.0004	0.0019	≤ 0.0004	0.0009	0.0019	0.0039	0.0039	0.0039	0.0078	0.0078	0.0078
